Laboratory results published in US4297369A, “Certain muscle relaxant 3-methyl-2-benzofuran acetamides” (Kyowa Hakko Kogyo Co., Ltd., priority 1979, dated 1981).
Structures can show the parent of a compound that is named as a salt.

Experiments:
[1] = test system: tonic extensor seizures in mice (electroshock); assay: Maximal electroshock convulsion test; assay type: in vivo, male dd mice; settings: 100 mg/Kg p.o., 1 hr before shock; blocking tonic extensor seizures
Description: (§1) Anticonvulsant activity was determined according to the following three methods.
Groups of 10 male dd mice weighing 22-24 g were used. The drugs were orally administered and one hr. later, the mice were subjected to an electric current (2000 V, 50 mA) for 0.2 sec. through corneal electrodes. Drug activity is expressed as the percent blocking tonic extensor seizures.

mice [2] = assay: Muscle relaxant activity: traction test; assay type: in vivo, male dd mice
Description: (§2) Groups of 5 male dd mice weighing 19-21 g were used. The mice which remained for a period of 3 min. on a 3 cm diameter rod rotating at 5 r.p.m. were selected and tested to determine the muscle relaxant activity at 1, 2 and 4 hr. after drug administration. The methods employed are as follows.
Forefeet of each mouse were placed on a wire to examine whether it fell off or not.
(§3) In each test, the compound was considered to have the muscle relaxant activity when the mice fell off.

mice [3] = assay: Muscle relaxant activity: slant test; assay type: in vivo, male dd mice
Description: as §2
Each mouse was mounted on a 45°-inclined wire netting to examine whether it fell off or not.
as §3

mice [4] = assay: Muscle relaxant activity: rotating rod test; assay type: in vivo, male dd mice
Description: as §2
Each mouse was mounted on a rotating rod to examine whether it fell off or not within 2 min.
as §3

[5] = test system: clonic seizures in mice (pentetrazol); assay: Pentetrazol convulsion test; assay type: in vivo, male dd mice; settings: 1 hr before pentetrazol 120 mg/kg s.c.
Description: as §1
Groups of 10 male dd mice weighing 19-21 g were used. The drugs were orally administered and one hr. later, pentetrazol was injected subcutaneously at 120 mg/kg. Drug activity is expressed as the percent blocking clonic seizures.

[6] = test system: tonic extensor seizures in mice (strychnine); assay: Strychnine convulsion test; assay type: in vivo, male dd mice; settings: 1 hr before strychnine 2 mg/kg s.c.
Description: as §1
Groups of 10 male dd mice weighing 19-21 g were used. The drugs were orally administered and one hr. later, strychnine was injected subcutaneously at 2 mg/kg. Drug activity is expressed as the percent blocking tonic extensor seizures.

[7] = Acute toxicity, oral, rats; settings: rat, in vivo, p.o., 7 days mortality
Description: (§4) Male dd mice weighing 19-21 g and male Wistar rats weighing 170-190 g were used in groups of 3-6 animals. The drugs were suspended in a 0.3% carboxymethyl cellulose solution and administered orally. […] As the reference compound, benzydamine.HCl was dissolved in water and administered orally. (In Example, 6, 7 and 8, the drugs and benzydamine. HCl were also administered in the same manner.

[8] = test system: acetic acid writhing in mice; assay: Analgesic activity: acetic acid writhing; assay type: in vivo, male dd mice; settings: number of writhes vs control
Description: Groups of 10 male dd mice weighing 19-21 g were used. One hr. after drug administration, 0.2 ml of a 0.7% aqueous solution of acetic acid was injected intraperitoneally. Ten min. after acetic acid injection, the number of writhes was counted for each mouse during the following 10 min. Drug activity is expressed as the percent inhibition of the number of writhes in the control group.

[9] = Acute toxicity, oral, mice; settings: mouse, in vivo, p.o., 7 days mortality
Description: as §4

[10] = test system: carrageenin hind paw edema in rats; assay: Anti-inflammatory activity: carrageenin paw edema; assay type: in vivo, male Wistar rats; settings: edema 3 hr after carrageenin, vs control
Description: Groups of 5 male Wistar rats weighing 130-150 g were used. One hr. after drug administration, 0.1 ml of a 1% aqueous suspension of carrageenin was injected into the plantar surface of the right hind paw. The volume of the injected paw was measured before and 3 hr. after carrageenin injection by mercury displacement. Drug activity is expressed as the percent difference between the test and control groups' edema.

[11] = 200 mg/kg p.o., 1 hr after administration
[12] = 200 mg/kg p.o., 2 hr after administration
[13] = 200 mg/kg p.o., 4 hr after administration
[14] = 300 mg/kg p.o., 1 hr after administration
[15] = 300 mg/kg p.o., 2 hr after administration
[16] = 300 mg/kg p.o., 4 hr after administration

Structure (SMILES) | % Inhibition, Maximal Electroshock Test [1] | LD50 at 168 h [7] | LD50 at 168 h [9] | No. of falling mice/five tested mice, traction test (mice [2]; [14]) | No. of falling mice/five tested mice, traction test (mice [2]; [15]) | No. of falling mice/five tested mice, traction test (mice [2]; [16]) | No. of falling mice/five tested mice, slant test (mice [3]; [14]) | No. of falling mice/five tested mice, slant test (mice [3]; [15]) | No. of falling mice/five tested mice, slant test (mice [3]; [16]) | No. of falling mice/five tested mice, rotating rod test (mice [4]; [14]) | No. of falling mice/five tested mice, rotating rod test (mice [4]; [15]) | No. of falling mice/five tested mice, rotating rod test (mice [4]; [16]) | % Inhibition, Pentetrazole Convulsion Test ([5]; 150 mg/Kg p.o.) | % Inhibition, Strychnine Convulsion Test ([6]; 300 mg/Kg p.o.) | Analgesic Activity, % Inhibition ([8]; 150 mg/Kg p.o.) | Anti-inflammatory Activity, % Inhibition ([10]; 300 mg/Kg p.o.) | other results
CN(C)CCCOc1nn(Cc2ccccc2)c2ccccc12 [Benzydamine . HCl, reference compound] | 100% | > 1500 mg/kg | 500 to 1000 mg/kg |  |  |  |  |  |  |  |  |  |  |  |  |  | No. of falling mice/five tested mice, traction test (mice [2]; [11]): 0 mice/five tested mice; No. of falling mice/five tested mice, traction test (mice [2]; [12]): 0 mice/five tested mice; No. of falling mice/five tested mice, traction test (mice [2]; [13]): 0 mice/five tested mice; No. of falling mice/five tested mice, slant test (mice [3]; [11]): 2 mice/five tested mice; No. of falling mice/five tested mice, slant test (mice [3]; [12]): 1 mice/five tested mice; No. of falling mice/five tested mice, slant test (mice [3]; [13]): 0 mice/five tested mice; No. of falling mice/five tested mice, rotating rod test (mice [4]; [11]): 4 mice/five tested mice; No. of falling mice/five tested mice, rotating rod test (mice [4]; [12]): 2 mice/five tested mice; No. of falling mice/five tested mice, rotating rod test (mice [4]; [13]): 0 mice/five tested mice; % Inhibition, Pentetrazole Convulsion Test ([5]; 200 mg/Kg p.o.): 0%; % Inhibition, Strychnine Convulsion Test ([6]; 100 mg/Kg p.o.): 70%; Analgesic Activity, % Inhibition ([8]; 400 mg/Kg p.o.): 95.2%; Anti-inflammatory Activity, % Inhibition ([10]; 400 mg/Kg p.o.): 20.9%
COc1ccc2oc(CC(=O)N(C)C)c(C)c2c1 [A, 2-dimethylcarbamoylmethyl-3-methyl-5 methoxybenzo[b]furan] | 30% |  | > 1000 mg/kg | 2 mice/five tested mice | 2 mice/five tested mice | 0 mice/five tested mice | 3 mice/five tested mice | 1.5 mice/five tested mice | 0 mice/five tested mice | 5 mice/five tested mice | 3 mice/five tested mice | 1 mice/five tested mice | 40% | 60% | 83.6% | 23.3% | 
Cc1c(CC(=O)N(C)C)oc2ccc(-c3ccccc3)cc12 [C, 2-dimethylcarbamoylmethyl-3-methyl-5-phenylbenzo[b]furan] | 100% |  | > 1000 mg/kg | 2 mice/five tested mice | 3 mice/five tested mice | 0 mice/five tested mice | 1.5 mice/five tested mice | 1.5 mice/five tested mice | 0 mice/five tested mice | 3 mice/five tested mice | 3 mice/five tested mice | 0 mice/five tested mice | 30% | 70% | 48.4% | 20.4% | 
Cc1c(CC(=O)N(C)C)oc2ccc(F)cc12 [D, 2-dimethylcarbamoylmethyl-3-methyl-5-fluorobenzo[b]furan] | 85% |  | > 1000 mg/kg | 5 mice/five tested mice | 5 mice/five tested mice | 1 mice/five tested mice | 4.5 mice/five tested mice | 4.5 mice/five tested mice | 1 mice/five tested mice | 5 mice/five tested mice | 5 mice/five tested mice | 2 mice/five tested mice | 80% | 57% | 32.9% | 31.2% | 
Cc1ccc2oc(CC(=O)N(C)C)c(C)c2c1 [B, 2-dimethylcarbamoylmethyl-3,5-dimethylbenzo[b]furan] | 80% | > 3000 mg/kg | > 3000 mg/kg | 5 mice/five tested mice | 5 mice/five tested mice | 0 mice/five tested mice | 5 mice/five tested mice | 4 mice/five tested mice | 0 mice/five tested mice | 5 mice/five tested mice | 5 mice/five tested mice | 0 mice/five tested mice | 90% | 88% | 24.0% | 10.2% | 
